# Values quoted from earlier work, collected in US20070141015A1, “TOPICAL ADMINISTRATION CARRIER COMPOSITION AND THERAPEUTIC FORMULATIONS COMPRISING SAME” (priority 2005, published 2007).
# [1] = antihypertensive use, chronic 30 mg/day
smiles,measurement,setting,value
Nc1cc(N2CCCCC2)nc(N)[n+]1[O-] [Minoxidil],1 hour peak plasma level,"antihypertensive use, after 5 mg starting dose",Antihypertensive: 1 hour peak after 5 mg starting dose: 60 ng/mL plasma;
same,steady-state peak level,[1],250 ng/mL
same,steady-state trough level,[1],40 ng/mL
same,plasma level,"topical hair growth stimulant, 1 mL 2% b.i.d. dose",Less than 2-30 ng/ML plasma.
